Laboratory results: US20090082303A1, “DRUG FOR PREVENTING AND TREATING ATHEROSCLEROSIS” (Takeda Pharmaceutical Company Limited, priority 2004, published 2009)

Columns and labels:
human GM3 synthase [1] = assay: GM3 synthase inhibitor screening (1): BODIPY-lactosylceramide, HPTLC fluorescence; assay type: biochemical; conditions: 73 without CMP
Protocol: (§1) The cell line stably expressing human GM3 synthase, which was established by transducing human GM3 synthase gene into RAW264.7 strain purchased from ATCC (Raschke W C, et al., Cell, Vol. 15, pp. 261-267, 1978) with retrovirus vector, was cultured in 10% FBS-DMEM culture medium. After culturing to confluent state, the cells were washed once with PBS and harvested. After weighing wet cells, the cells were suspended in 3 (three) volumes of buffer solution (15 mM sodium cacodilate (pH6.5), 5% glycerol). By ultrasonication, the cells were disrupted, and the supernatant, of which cell debris was excluded by centrifugation, was used as a crude enzyme solution. Protein concentration of the crude enzyme solution was determined using BCA protein assay kit(BIO RAD, Inc.).
BODIPY-lactosylceramide (Molecular Probes, Inc.) in chloroform solution was dried in Eppendorf tube under nitrogen flow. 4× reaction buffer solution consisting of 400 mM sodium cacodylate (pH6.5), 1.6% Triton X-100, 40 mM MgCl2 and 8 mM 2,3 dehydro-2-deoxy-N-acetylneuraminic acid was added to the tube. After vortexing, it was sufficiently dissolved by ultrasonication for 20 seconds in sonicator bath and was used as a substrate solution.
Ten μl of substrate solution, 10 μl of 800 μM CMP-sialic acid, 10 μl of crude enzyme solution and 10 μl of sample were admixed and followed by incubating at 37° C. for one hour. As a sample, cytidine mono phosphate (CMP), wherein the inhibitory effect to GM3 synthase activity is reported, was used (Biochem. Biophys. Res. Commun., Vol. 193, pp. 585-590, 1993). One milliliter of chloroform/methanol mixture (2:1) was added to the reaction mixture to terminate the reaction. After mixing, ultrasonication was done for 30 minutes in sonicator bath. Supernatant was recovered by centrifugation at 15,000 rpm for 5 minutes. Pellet was further washed with 200 μl of chloroform/methanol mixture (2:1) and recovered its supernatant by centrifugation at 15,000 rpm for 5 minutes. Collected supernatant was dried under nitrogen flow, and residue was re-suspended in 50 μl of chloroform/methanol mixture (2:1). Twenty μl of the supernatant isolated by centrifugation was spotted on HPTLC (Merck, Inc.) and was developed with solvent system consisting of chloroform/methanol/0.2% CaCl2 aqueous solution (50:45:10). After development, fluorescent intensity was measured with LAS-1000 (Fuji Film, Inc.). Fluorescent intensity of both the substrate, BODIPY-lactosylceramide and the product, BODIPY-GM3 was measured, respectively to calculate a ratio of GM3 produced to lactosylceramide added. The activity was calculated as an amount of GM3 (nmol) produced/hour/mg of protein in the crude enzyme solution.
GM3 synthase activity(nmol/mg/hr)=BODIPY-GM3(AU)/(BODIPY-lactosylceramide(AU)+BODIPY-GM3(AU))×10 nmol×1/(protein weight (mg)×reaction time(hr))
AU means a numerical value determined with LAS-1000.

human GM3 synthase [2] = assay: GM3 synthase inhibitor screening (2): Phospholipid FlashPlate, CMP-[14C] sialic acid; assay type: biochemical; conditions: without CMP = 1
Protocol: as §1
Coating of lactosylceramide, the substrate for GM3 synthase to Phospholipid FlashPlate (PerkinElmer, Inc.) was carried out by the method as described below. 200 μM lactosylceramide-reaction buffer solution consisting of 100 mM sodium cacodylate (pH6.5) and 10 mM MgCl2 was dispensed on the plate at 200 μl/well and followed by standing at room temperature for overnight. After washing the plate once with PBS, 30 μM lactosylceramide-reaction buffer solution was dispensed at 70 μl/well.
Ten microliter of the crude enzyme solution prepared by the procedure in EXAMPLE 4, 10 μl of CMP solution and 10 μl of 500 μM CMP-[^14C] sialic acid (Amersham; 5×10^4 cpm/well) were admixed and incubated at 37° C. for 3 (three) hours. Radioactivity was measured by Topcount (PerkinElmer, Inc.).
A well, in which buffer solution for cell suspension was added instead of the crude enzyme was used as a blank. A value obtained by subtract the cpm value of blank well from the cpm value of sample well was used as a value for enzyme activity.
Relative value was calculated based on the conditions without treatment of CMP as 1 (one).

GM3 synthase = assay: Effect of shRNA expressing retrovirus on GM3 synthase activity in RAW264.7 strain; assay type: cell-based; conditions: crude enzyme from retrovirus-infected RAW264.7; uninfected RAW264.7 = 1
Protocol: RAW264.7 strain purchased from ATCC (Raschke W C, et al., Cell, Vol. 15, pp. 261-267, 1978) was suspended in 10% FBS-DMEM culture medium to be 1×10^5 cells/ml, and was seeded on 12-well plate at 1 ml/well. After overnight incubation at 37° C. in the presence of 5% CO2, retrovirus, which expressed sequences for shRNA (short hairpin RNA), SHI (SEQ ID NO: 5) or SH3 (SEQ ID NO: 6), was infected to RAW264.7 strain. After overnight culture, the medium was replaced with 10% FBS-DMEM culture medium and the cells were cultured to confluent state. Using these cells, in accordance with the method in EXAMPLE 4, crude enzyme was prepared to assay GM3 synthase activity. Based on the value of the enzyme activity from RAW264.7 strain as 1 (one), the value from the virus-infected cells was calculated as relative value.

RAW264.7 strain = assay: Effect of GM3 synthase knock-down on cholesterol efflux from RAW264.7 strain; assay type: cell-based; conditions: [3H] cholesterol efflux to Apolipoprotein A1 20 μg/ml, 6 hours; uninfected RAW264.7 = 1
Protocol: RAW264.7 strain infected with the retrovirus that expresses shRNA targeting GM3 synthase was suspended in 10% FBS-DMEM culture medium to be 1.5-2×10^6 cells/ml and was seeded on 12-well plate at 1 mL/well. After overnight culture at 37° C. in the presence of 5% CO2, the cells were washed with PBS. Then, after adding 1% FBS-DMEM culture medium, which contained [^3H] cholesterol-labeled βVLDL (final concentration: 150 μg of total cholesterol/ml), the cells were cultured for overnight. The cells were washed twice with 0.2% BSA-PBS and further washed with PBS. After replacing the medium with 0.1% BSA-DMEM culture medium, the cells were cultivated for one day. After replacing 20 μg/ml of Apolipoprotein A1 containing 0.1% BSA-DMEM culture medium, the cells were cultured for 6 hours. Cultured supernatant was collected, and radioactivity of the supernatant, from which cell debris was removed by centrifugation, was measured with the liquid scintillation counter. […] After incubation at 37° C. for overnight, radioactivity of the cell lysate was measured with the liquid scintillation counter. A ratio of the radioactivity of the culture supernatant to the summation of the radioactivity of the culture supernatant and the cell lysate was calculated. […] Based on the value from RAW264.7 strain as 1 (one), the value from the virus-infected cells was calculated as relative value.

mouse GM3 synthase = assay: Effect of IFN-γ on expression of mouse GM3 synthase in mouse peritoneal macrophage cells (TaqMan PCR); assay type: cell-based; conditions: 24 hours, GAPDH internal standard, ΔΔCt, without IFN-γ = 1
Protocol: In accordance with the method by Hakamada et al. [Jikken-igaku (Experimental Medicine), Supplementary Volume, Vol. 14, No. 12, “Junnkan Kenkyu Protocol (Protocol for study on circulation)”, pp. 49-52, 1996], from C57BL/6j mouse after the intraperitoneal injection of thioglycolate, peritoneal macrophage was prepared. The cells were suspended in 10% FBS-DMEM culture medium to be 1.5-2×10^6 cells/mL, and were seeded on 12-well plate at 1 mL/well. After overnight culture at 37° C. in the presence of 5% CO2, the cells were washed with PBS. The 1% FBS-DMEM culture medium containing mouse recombinant IFN-γ at prescribed concentration was added to the cells, and cultivation was performed for 24 hours.
After washing the cells once with PBS, using RNeasy Mini Kit (QIAGEN) total RNA was prepared. Subsequently, using TaqMan Reverse Transcription Reagents (Applied Biosystems) cDNA was prepared. By TaqMan PCR method Using TaqMan Universal PCR Master Mix (Applied Biosystems), the expression level of GM3 synthase was quantified. As TaqMan probe and primers for mouse GM3 synthase, Assays-on-Demand (Mm00488232_ml) supplied from Applied Biosystems was used.
(§2) In quantification, an expression level of GAPDH was used as internal standard. By ΔΔCt method, relative value was calculated based on the conditions without treatment of IFN-γ as 1 (one).

human GM3 synthase [3] = assay: Effect of IFN-γ on expression of human GM3 synthase in THP-1 cells (TaqMan PCR); assay type: cell-based; conditions: 24 hours, THP-1 macrophage-like cells, without IFN-γ = 1
Protocol: THP-1 cells suspended in RPMI-1640 culture medium containing phorbol 12-myristeate 13-acetate (final concentration: […]), in which 10% FBS, 25 mM HEPES and Penicillin/Streptomycin were comprised, were seeded on 24-well plate at 1.0×10^6 cells/well and treated, for 3 (three) days to differentiate into macrophage-like cells. After washing the cells with PBS, RPMI-1640 culture medium containing human recombinant IFN-γ at a prescribed concentration was added to the cells. Subsequently, the cells were cultured for 24 hours.
As TaqMan probe and primers for human GM3 synthase, Assays-on-Demand (Hs00187405 ml) supplied from Applied Biosystems was used.
as §2

## Nc1ccn([C@@H]2O[C@H](COP(=O)(O)O)[C@@H](O)[C@H]2O)c(=O)n1 [CMP, cytidine mono phosphate]
Human GM3 synthase [1]; CMP 0.1 mM
  GM3 synthase activity: 46 nmol/mg/h
Human GM3 synthase [1]; CMP 0.3 mM
  GM3 synthase activity: 27 nmol/mg/h
Human GM3 synthase [1]; CMP 1 mM
  GM3 synthase activity: 12 nmol/mg/h
Human GM3 synthase [1]; CMP 3 mM
  GM3 synthase activity: 5 nmol/mg/h
Human GM3 synthase [1]; CMP 10 mM
  GM3 synthase activity: 7 nmol/mg/h
Human GM3 synthase [2]; CMP 0.04 mM
  GM3 synthase activity (relative value): 1.01
Human GM3 synthase [2]; CMP 0.12 mM
  GM3 synthase activity (relative value): 0.73
Human GM3 synthase [2]; CMP 0.4 mM
  GM3 synthase activity (relative value): 0.58
Human GM3 synthase [2]; CMP 1.2 mM
  GM3 synthase activity (relative value): 0.32
Human GM3 synthase [2]; CMP 4 mM
  GM3 synthase activity (relative value): 0.28

## SH1: retrovirus expressing shRNA (short hairpin RNA) sequence SEQ ID NO: 5 targeting GM3 synthase (GAAGACCCAGCTTGTTAATGTGTGCTGTCCATTAACAAGCTGGGTCTTCTTTTT)
GM3 synthase
  GM3 synthase activity (relative value): 0.3
RAW264.7 strain
  cholesterol transporting activity (relative value): 1.3

## SH3: retrovirus expressing shRNA (short hairpin RNA) sequence SEQ ID NO: 6 targeting GM3 synthase (GCCAATGATTTGTTCGTTAGTGTGCTGTCCTAACGAACAAATCATTGGCTTTTT)
GM3 synthase
  GM3 synthase activity (relative value): 0.5
RAW264.7 strain
  cholesterol transporting activity (relative value): 1.1

## mIFN-γ: mouse recombinant IFN-γ, known as the atherogenic cytokine
Mouse GM3 synthase; mIFN-γ 1 U/mL
  Expression (mouse GM3 synthase mRNA, relative value): 4
Mouse GM3 synthase; mIFN-γ 10 U/mL
  Expression (mouse GM3 synthase mRNA, relative value): 25

B1: hIFN-γ: human recombinant IFN-γ (protein, UniProt P01579 24-161, looked up)
Interferon gamma: QDPYVKEAENLKKYFNAGHSDVADNGTLFLGILKNWKEESDRKIMQSQIVSFYFKLFKNFKDDQSIQKSVETIKEDMNVKFFNSNKKKRDDFEKLTNYSVTDLNVQRKAIHELIQVMAELSPAAKTGKRKRSQMLFRG
Human GM3 synthase [3]; hIFN-γ 10 ng/mL
  Expression level (human GM3 synthase mRNA, relative value): 2.6
Human GM3 synthase [3]; hIFN-γ 30 ng/mL
  Expression level (human GM3 synthase mRNA, relative value): 2.4
